Laboratory results taken from publication PMC6837725.

Assay: Intramolecular Suzuki-Miyaura C(sp3)-C(sp2) coupling (cis-4-chlorocyclobut-2-ene carboxylate + E-vinyl-BPin) followed by spontaneous 4pi-electrocyclic ring opening to the (E,E,E)-trienoate macrolactone; Pd(PPh3)4 10 mol%, Cs2CO3 5 equiv
Conditions: 19-membered ring, THF/H2O 3:1, 2.0 mM, 25.0 °C

`C/C(=C\C=C\C(F)(F)F)[C@H]1CC(=O)NC[C@H](O[Si](C)(C)C(C)(C)C)[C@H](C)C(=O)NCC/C=C/C=C/C=C/C(=O)O1` gave a ring closure, isolated yield (from C/C(=C\C=C\C(F)(F)F)[C@@H](CC(=O)NC[C@H](O[Si](C)(C)C(C)(C)C)[C@H](C)C(=O)NCC/C=C/B1OC(C)(C)C(C)(C)O1)OC(=O)C1C=CC1Cl) of 73%.

With `C[C@@H]1C(=O)NCC/C=C/C=C/C=C/C(=O)O[C@@H](C)CC(=O)NC[C@@H]1O[Si](C)(C)C(C)(C)C` the ring closure, isolated yield (from C[C@H](C(=O)NCC/C=C/B1OC(C)(C)C(C)(C)O1)[C@H](CNC(=O)C[C@H](C)OC(=O)C1C=CC1Cl)O[Si](C)(C)C(C)(C)C) was 84%.

For `CCCCCCC/C=C/C=C(\C)[C@H]1CC(=O)NC[C@H](O[Si](C)(C)C(C)(C)C)[C@H](C)C(=O)NCC/C=C/C=C/C=C/C(=O)O1` [cis-31a -> 32a (FR252921)], the ring closure, isolated yield (from CCCCCCC/C=C/C=C(\C)[C@@H](CC(=O)NC[C@H](O[Si](C)(C)C(C)(C)C)[C@H](C)C(=O)NCC/C=C/B1OC(C)(C)C(C)(C)O1)OC(=O)C1C=CC1Cl) was 74%.

`CCCCCCCCC/C=C/C=C(\C)[C@H]1CC(=O)NC[C@H](O[Si](C)(C)C(C)(C)C)[C@H](C)C(=O)NCC/C=C/C=C/C=C/C(=O)O1` [cis-31b -> 32b (FR252922)] showed a ring closure, isolated yield (from CCCCCCCCC/C=C/C=C(\C)[C@@H](CC(=O)NC[C@H](O[Si](C)(C)C(C)(C)C)[C@H](C)C(=O)NCC/C=C/B1OC(C)(C)C(C)(C)O1)OC(=O)C1C=CC1Cl) of 82%.

Molecule `CCCCCCC/C=C/C=C/C=C(\C)[C@H]1CC(=O)NC[C@H](O[Si](C)(C)C(C)(C)C)[C@H](C)C(=O)NCC/C=C/C=C/C=C/C(=O)O1` [cis-31c -> 32c (FR256523)] has a ring closure, isolated yield (from CCCCCCC/C=C/C=C/C=C(\C)[C@@H](CC(=O)NC[C@H](O[Si](C)(C)C(C)(C)C)[C@H](C)C(=O)NCC/C=C/B1OC(C)(C)C(C)(C)O1)OC(=O)C1C=CC1Cl) of 71%.

`CCCCCCCCCCC[C@H]1CC(=O)NC[C@H](O[Si](C)(C)C(C)(C)C)[C@H](C)C(=O)NCC/C=C/C=C/C=C/C(=O)O1` [cis-31d -> 32d (FR1, C11H23 side chain)] gave a ring closure, isolated yield (from CCCCCCCCCCC[C@@H](CC(=O)NC[C@H](O[Si](C)(C)C(C)(C)C)[C@H](C)C(=O)NCC/C=C/B1OC(C)(C)C(C)(C)O1)OC(=O)C1C=CC1Cl) of 56%.

With `CCCCCCC/C=C/C=C(\C)[C@H]1CC(=O)NC[C@H](O[Si](C)(C)C(C)(C)C)CC(=O)NCC/C=C/C=C/C=C/C(=O)O1` [cis-31f -> 32f (FR3, C12-desmethyl)] the ring closure, isolated yield (from CCCCCCC/C=C/C=C(\C)[C@@H](CC(=O)NC[C@@H](CC(=O)NCC/C=C/B1OC(C)(C)C(C)(C)O1)O[Si](C)(C)C(C)(C)C)OC(=O)C1C=CC1Cl) was 73%.

In the case of `CCCCCCC/C=C/C=C(\C)[C@H]1CC(=O)NCCCC(=O)NCC/C=C/C=C/C=C/C(=O)O1` [cis-31g -> FR4 (no C12-Me, no C13-O)], the ring closure, isolated yield (from CCCCCCC/C=C/C=C(\C)[C@@H](CC(=O)NCCCC(=O)NCC/C=C/B1OC(C)(C)C(C)(C)O1)OC(=O)C1C=CC1Cl) is reported as 55%.

`C/C(=C\C=C\c1ccccc1)[C@H]1CC(=O)NC[C@H](O[Si](C)(C)C(C)(C)C)[C@H](C)C(=O)NCC/C=C/C=C/C=C/C(=O)O1` [cis-31i -> 32i (FR6, Ph-dienyl)] showed a ring closure, isolated yield (from C/C(=C\C=C\c1ccccc1)[C@@H](CC(=O)NC[C@H](O[Si](C)(C)C(C)(C)C)[C@H](C)C(=O)NCC/C=C/B1OC(C)(C)C(C)(C)O1)OC(=O)C1C=CC1Cl) of 80%.

Work on `C/C(=C\C=C\c1ccc(C)cc1)[C@H]1CC(=O)NC[C@H](O[Si](C)(C)C(C)(C)C)[C@H](C)C(=O)NCC/C=C/C=C/C=C/C(=O)O1` [cis-31j -> 32j (FR7, p-tolyl-dienyl)] yielded a ring closure, isolated yield (from C/C(=C\C=C\c1ccc(C)cc1)[C@@H](CC(=O)NC[C@H](O[Si](C)(C)C(C)(C)C)[C@H](C)C(=O)NCC/C=C/B1OC(C)(C)C(C)(C)O1)OC(=O)C1C=CC1Cl) of 20%.

Work on `C/C(=C\C=C\c1ccc(C(F)(F)F)cc1)[C@H]1CC(=O)NC[C@H](O[Si](C)(C)C(C)(C)C)[C@H](C)C(=O)NCC/C=C/C=C/C=C/C(=O)O1` [cis-31k -> 32k (FR8, p-CF3-phenyl-dienyl)] yielded a ring closure, isolated yield (from C/C(=C\C=C\c1ccc(C(F)(F)F)cc1)[C@@H](CC(=O)NC[C@H](O[Si](C)(C)C(C)(C)C)[C@H](C)C(=O)NCC/C=C/B1OC(C)(C)C(C)(C)O1)OC(=O)C1C=CC1Cl) of 47%.

Molecule `C[C@@H]1C(=O)NCC/C=C/C=C/C=C/C(=O)O[C@@H](c2ccc(Br)cc2)CC(=O)NC[C@@H]1O[Si](C)(C)C(C)(C)C` [cis-31l -> 32l (FR9, 4-bromophenyl)] has a ring closure, isolated yield (from C[C@H](C(=O)NCC/C=C/B1OC(C)(C)C(C)(C)O1)[C@H](CNC(=O)C[C@@H](OC(=O)C1C=CC1Cl)c1ccc(Br)cc1)O[Si](C)(C)C(C)(C)C) of 58%.

Work on `C/C(=C\Br)[C@H]1CC(=O)NC[C@H](O[Si](C)(C)C(C)(C)C)[C@H](C)C(=O)NCC/C=C/C=C/C=C/C(=O)O1` [cis-31m -> 32m (FR10, bromovinyl)] yielded a ring closure, isolated yield (from C/C(=C\Br)[C@@H](CC(=O)NC[C@H](O[Si](C)(C)C(C)(C)C)[C@H](C)C(=O)NCC/C=C/B1OC(C)(C)C(C)(C)O1)OC(=O)C1C=CC1Cl) of 54%.

For `C[C@@H]1C(=O)NCC/C=C/C=C/C=C/C(=O)O[C@@H](c2ccc3ccccc3c2)CC(=O)NC[C@@H]1O[Si](C)(C)C(C)(C)C` [cis-31n -> 32n (FR11, 2-naphthyl)], the ring closure, isolated yield (from C[C@H](C(=O)NCC/C=C/B1OC(C)(C)C(C)(C)O1)[C@H](CNC(=O)C[C@@H](OC(=O)C1C=CC1Cl)c1ccc2ccccc2c1)O[Si](C)(C)C(C)(C)C) was 51%.
